Experimental data as given in patent US20230158161A1, “DRUG DELIVERY SYSTEMS COMPRISING AN INTRAOCULAR PRESSURE LOWERING AGENT, A NEUROTROPHIC AGENT, A C-TYPE NATRIURETIC PEPTIDE, A NATRIURETIC PEPTIDE RECEPTOR-B, AN APOPTOSIS SIGNALING FRAGMENT INHIBITOR OR A FAS-LIGAND INHIBITOR FOR TREATING GLAUCOMA OR OCULAR HYPERTENSION” (Cella Therapeutics, LLC, priority 2020, published 2023).

Tested on: African Green monkeys
Assay: IOP after intravitreal injection in African Green monkeys, PBS in the fellow eye as control
Type: in vivo, African Green monkey
Description: Eight African Green monkeys were screened to identify 4 animals with high-normal IOP. Animals were anesthetized with ketamine 10 mg/kg and Xylazine 0.5 mg/kg. Bimatoprost acid 100 ng in 50 μl was injected intravitreally in one eye through a 30-gauge syringe using a shelved technique, and 50 μl of phosphate buffered saline (PBS) was injected into the fellow eye as a concurrent control on days 0, 1, 2 at 8:30 pm. The bimatoprost acid dose was escalated to 200 ng in 100 μl, with the same volume of PBS given to the fellow eye, on days 3 (8:30 pm) and 4 (5:30 pm). IOP was measured with a Tonovet tonometer at 8:30 am, 11:30 am and 8:30 pm on day 1; 8:30 am, 11:30 am and 5:30 pm on day 4; and at 8:30 am on days 2, 3 and 5. The person measuring the IOP was masked to treatment assignment. Slit lamp exams were performed on day 0, 1 and 5. OCTs were performed at baseline and day 5.

## O=C(O)CCC/C=C\C[C@@H]1[C@@H](/C=C/[C@@H](O)CCc2ccccc2)[C@H](O)C[C@@H]1O [bimatoprost acid]
100 ng intravitreal, one of four animals (B392) responded, at 1 timepoint
  reduction in IOP compared with the fellow eye: 30%
200 ng intravitreal, animal B392, day 5
  IOP reduced in the treated eye compared with the fellow eye receiving PBS: 52%
200 ng intravitreal, three of four animals responded, at 1 or more timepoints
  reduction in IOP compared with the fellow eye: 30%
Animal B300, 100 ng and 200 ng intravitreal
  IOP response: did not respond to either dose
intravitreal, dose-response between the 100 ng and 200 ng doses
  IOP lowering effect, overall conclusion: clear IOP lowering-effect
